In general, Km refers to the concentration of substrate that gives half-maximal velocity.

For the assay, the target named is T1, LipA (Sodiomyces alcalophilus, UniProt P0CT91).
T1 construct: Transient in Nicotiana benthamiana; vector adds Pr1b signal peptide, Xpress tag, C-myc tag, KDEL (tags kept); N-glycosylated, about 56 kDa on SDS-PAGE
T1 sequence (P0CT91 23-416): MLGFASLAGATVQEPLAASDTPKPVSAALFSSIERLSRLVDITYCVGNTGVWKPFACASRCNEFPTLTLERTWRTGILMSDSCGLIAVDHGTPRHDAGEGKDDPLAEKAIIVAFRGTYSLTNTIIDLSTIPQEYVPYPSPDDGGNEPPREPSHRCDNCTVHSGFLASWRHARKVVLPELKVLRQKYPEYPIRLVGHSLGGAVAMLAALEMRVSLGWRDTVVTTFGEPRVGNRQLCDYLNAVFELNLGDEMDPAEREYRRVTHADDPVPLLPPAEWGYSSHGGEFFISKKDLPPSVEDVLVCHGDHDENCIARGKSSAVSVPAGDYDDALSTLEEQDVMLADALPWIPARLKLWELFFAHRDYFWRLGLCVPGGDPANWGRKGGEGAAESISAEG
Nature of the assay: p-nitrophenol release, […] nm. It is filed as biochemical. The following applies: 100 mM phosphate buffer pH 8.0, 40°C.
Consider `CCCCCCCC(=O)Oc1ccc([N+](=O)[O-])cc1` [pNP caprylate (C8)], for which the Km came to 100 µM.

For `CC(=O)Oc1ccc([N+](=O)[O-])cc1` [pNP acetate (C2)], the Km was found to be 150 µM.

Regarding `CCCCCCCCCCCCCCCC(=O)Oc1ccc([N+](=O)[O-])cc1` [pNP palmitate (C16)], the Km was 100 µM.

In the case of `CCCCCCCCCCCCCC(=O)Oc1ccc([N+](=O)[O-])cc1` [pNP myristate (C14)], the Km worked out at 70 µM.

Turning to `CCCC(=O)Oc1ccc([N+](=O)[O-])cc1` [pNP butyrate (C4)], the Km turned out to be 160 µM.

The values above are taken from article PMC3750315, “The production and characterization of a new active lipase from Acremonium alcalophilum using a plant bioreactor” (Biotechnology for Biofuels, 2013).
